# Test results taken from US9833446B2, “Hedgehog pathway inhibition for cartilage tumor and metachondromatosis treatment” (Rhode Island Hospital, priority 2012, dated 2017).
# Entries after “also recorded” stand apart in the source; their conditions may differ.
# How the values were obtained:
# ATDC5 cells = assay: q-PCR of Ihh and Pthrp expression in inhibitor-treated parental ATDC5 cells; assay type: cell-based, murine; settings: PD173074 10 nM, UO126 1 μM, n=3, p<0.05
# Text: (§1) FIG. 4a, Left panel, is a bar graph of qPCR results showing increased Col2α1, Col10α1, Ihh, and Pthrp expression in laser-captured cartilaginous cells from exostoses, compared with normal articular cartilage cells (n=4, *p<0.05, Student t test). FIG. 4a, Right panel, is a series of photomicrographs showing immunostaining of paraffin sections from Perichondrial Groove of Ranvier region of Ctsk-KO and Control mice. Note the decreased number of p-Erk+ cells, but increased Ihh expression in Ctsk-KO, compared with Control, mice. FIG. 4b, Left Panel, is a photograph of an immunoblot showing Shp2 levels in ATDC5 chondroprogenitor cell lines stably expressing shRNAs against murine Ptpn11 (ATDC5-KD1, ATDC5-KD2, respectively) or a scrambled control hairpin. […] FIG. 4c is a bar graph showing that FGFR (PD173074, 10 nM) or MEK (UO126, 1 μM) inhibitor treatment of parental ATDC5 cells enhances Ihh and Pthrp expression, as shown by q-PCR (n=3, *p<0.05, Student t test). […] Images of representative posterior paws (i-iv) and knese (v-vii) taken pre-treatment (i, iii, v, vii) and post-treatment with vehicle (ii, vi) or Smoothened inhibitor (SMOi) (iv, viii) for 4 weeks. Note continued development of exostoses and endochromas in Vehicle-treated mice, and their amelioration in SMOi-treated group (arrows). Also, see FIGS. 7a,b and 8a,b.
# Parental ATDC5 cells were purchased from the ATCC and cultured in complete DMEM/F12 medium (1:1) (Invitrogen) as described46. ATDC5 cells stably expressing short hairpin RNAs against murine Shp2 • (oligoA:5′[…] TCTGAATCTT TTTGGAAA (SEQ ID NO:1)); • Oligo B: 5-[…] (SEQ ID NO:2)) or its scrambled control were established by using pSuper(retro)/puro retroviral vector (Oligoengine, Inc) and pEcopac.
# (§2) Quantitative RT-PCR. RNA was extracted from cultured cells or cartilage lesions captured by laser dissection by using the RNeasy kit (Qiagen). cDNA was synthesized using iScript™cDNA Synthesis Kit (Bio-Rad) and q-PCR was performed by using the RT2SYBR®Green qPCR kit. All values were normalized to Gapdh levels, and qPCR data are expressed as fold-increases compared with controls.
# CCPs are rare, rendering detailed biochemical analyses of these cells unfeasible. We therefore tested the effects of Shp2 depletion in ATDC5 chondroid cells by stably expressing either of two shRNAs directed against murine Ptpn11. As in Ctsk-KO mice (FIG. 4a), Fgf18-evoked Erk activation was decreased, while Ihh and Pthrp levels were increased, in Shp2 deficient-ATDC5 cells, compared with cells expressing an shRNA control (FIG. 4b). Conversely, FGFR (PD173074) or MEK (UO126) inhibitor treatment of randomly growing, parental ATDC5 cells led to enhanced Ihh and Pthrp expression (FIG. 4c).
# Ctsk-KO mice = assay: Smoothened inhibitor treatment of Ctsk-KO mice (metachondromatosis model), X-ray, μ-CT and histology; assay type: in vivo; settings: for number of exostoses / size of exostoses: vs vehicle; for cartilage tumor condition / disease process in Shp2 mutant mice: systemic administration
# Text: as §1
# All animals used for these experiments are shown. […] SMOi was administered by oral gavage to Ctsk-KO mice beginning at post-natal week 5 for four weeks, and mice were euthanized at week 9.
# Microcomputed Tomography (μ-CT) and x-Ray Analysis. X-ray images of the entire skeleton, knees, metatarsals and phalanges were obtained immediately after euthanasia by using a Faxitron X-ray system (Wheeling, Ill.). After fixation in 4% PFA, μ-CT images of skeletal tissues were scanned with the desktop microcomputer graphic imaging system (μ-CT40, Scanco Medical AG, CH). The number and size of exostoses were measured visually based on x-ray images.
# Ihh signaling leads to Pthrp production. […] If so, then blocking or attenuating Ihh signaling might slow and/or prevent MC development. To test this hypothesis, Control (wild type) and Ctsk-KO mice (5/group) were treated with the Smoothened inhibitor PF-04449913 (100 μg/g body weight) or vehicle control (0.5% methylcellulose) by daily gavage, beginning at 5 weeks of age and continuing for the succeeding 4 weeks. The skeletal phenotype was examined by X-ray, μ-CT, and histological analysis at the end of experiment.
# Hedgehog pathway = assay: qPCR of epiphyseal cartilage after oral Smoothened inhibitor in wild type mice; assay type: in vivo; settings: oral administration for 1 week, n=3, p<0.05
# Text: FIG. 8a is a series of charts showing number and size of exostoses in Ctsk-KO mice post-treatment (n=5) with vehicle or Smoothened inhibitor (SMOi). […] FIG. 8b is a bar graph of qPCR results showing that oral administration of the Smoothened inhibitor SMOi to wild type mice for 1 week blunts the expression of Col2α1, Col10α1, Mmp13 and Gli1 in epiphyseal cartilage (n=3, *p<0.05, student t test).
# as §2
# [1] = Ctsk-KO mice, 100 μg/g body weight, daily gavage, 4 weeks
# [2] = Ctsk-KO mice, 100 μg/g body weight, daily gavage, 4 weeks, listed as SMOi
Compound,Ihh expression (q-PCR) (ATDC5 cells),Pthrp expression (q-PCR) (ATDC5 cells),function of multiple joints (Ctsk-KO mice; [1]),"tumor formation (Faxitron radiographs) (Ctsk-KO mice; Ctsk-KO mice, 100 μg/g body weight, daily gavage, 4 weeks from week 5, vs vehicle (0.5% methylcellulose))",number of exostoses (Ctsk-KO mice; [1]),size of exostoses (Ctsk-KO mice; [1]),number of exostoses (Ctsk-KO mice; [2]),size of exostoses (Ctsk-KO mice; [2]),cartilage tumor condition / disease process in Shp2 mutant mice (Ctsk-KO mice),cartilage tumor condition / disease process in Shp2 mutant mice (Ctsk-KO mice; listed as PF-0444993),expression of Col2α1 in epiphyseal cartilage (qPCR) (Hedgehog pathway),expression of Col10α1 in epiphyseal cartilage (qPCR) (Hedgehog pathway),expression of Gli1 in epiphyseal cartilage (qPCR) (Hedgehog pathway),expression of Mmp13 in epiphyseal cartilage (qPCR) (Hedgehog pathway)
CCN(CC)CCCCNc1ncc2cc(-c3cc(OC)cc(OC)c3)c(NC(=O)NC(C)(C)C)nc2n1 [PD173074],enhanced,enhanced,–,–,–,–,–,–,–,–,–,–,–,–
CN1CC[C@@H](NC(=O)Nc2ccc(C#N)cc2)C[C@@H]1c1nc2ccccc2[nH]1 [PF-04449913],–,–,improved,ameliorates tumor formation,significantly reduced,significantly reduced,reduction of number; also recorded: decrease in average number of exostoses,reduction of number and size,reduces the cartilage tumor condition,can stop or slow down the disease process,blunts,blunts,blunts,blunts
N#CC(=C(/N)Sc1ccccc1N)/C(C#N)=C(/N)Sc1ccccc1N [UO126],enhanced,enhanced,–,–,–,–,–,–,–,–,–,–,–,–
